Data published in ChEMBL document CHEMBL3046568, “Synthesis, antimicrobial and DNA cleavage studies of some 4-aryloxymethylcoumarins obtained by reaction of 4-bromomethylcoumarins with bidentate nucleophiles” (2012).
≈ marks a conversion by molar mass, not a printed value. Calls of active or inactive are those of the source. The calls are words filed in the database; no cut-off is given here.

Legend:
Enterococcus faecalis = experiment: Antibacterial activity against Enterococcus faecalis MTCC 3382 after 24 hr by disk diffusion method; assay type: functional; conditions: for MIC: Enterococcus faecalis, MTCC 3382, 24 h
Aspergillus niger [1] = experiment: Induction of Aspergillus niger DNA cleavage at 50 ug after 2 hr by agarose gel electrophoresis
Escherichia coli [2] = experiment: Induction of Escherichia coli MTCC 1089 DNA cleavage at 50 ug after 2 hr by agarose gel electrophoresis
Staphylococcus aureus [3] = experiment: Induction of Staphylococcus aureus MTCC 3160 DNA cleavage at 50 ug after 2 hr by agarose gel electrophoresis
Fusarium oxysporum = experiment: Antifungal activity against Fusarium oxysporum after 3 to 4 days by serial dilution method; assay type: functional; conditions: for MIC: Fusarium oxysporum
Mucor fuscus = experiment: Antifungal activity against Mucor fuscus after 3 to 4 days by serial dilution method; assay type: functional; conditions: for MIC: Mucor fuscus
Penicillium chrysogenum = experiment: Antifungal activity against Penicillium chrysogenum after 3 to 4 days by serial dilution method; assay type: functional; conditions: for MIC: Penicillium chrysogenum
Aspergillus niger [4] = experiment: Antifungal activity against Aspergillus niger after 3 to 4 days by serial dilution method; assay type: functional; conditions: for MIC: Aspergillus niger
Candida albicans = experiment: Antifungal activity against Candida albicans after 3 to 4 days by serial dilution method; assay type: functional; conditions: for MIC: Candida albicans
Aspergillus fumigatus = experiment: Antifungal activity against Aspergillus fumigatus after 3 to 4 days by serial dilution method; assay type: functional; conditions: for MIC: Aspergillus fumigatus
Escherichia coli [5] = experiment: Antibacterial activity against Escherichia coli MTCC 1089 after 24 hr by disk diffusion method; assay type: functional; conditions: for MIC: Escherichia coli, MTCC 1089, 24 h
Klebsiella pneumoniae = experiment: Antibacterial activity against Klebsiella pneumoniae MTCC 3384 after 24 hr by disk diffusion method; assay type: functional; conditions: for MIC: Klebsiella pneumoniae, MTCC 3384, 24 h
Pseudomonas aeruginosa = experiment: Antibacterial activity against Pseudomonas aeruginosa MTCC 1034 after 24 hr by disk diffusion method; assay type: functional; conditions: for MIC: Pseudomonas aeruginosa, MTCC 1034, 24 h
Bacillus subtilis = experiment: Antibacterial activity against Bacillus subtilis MTCC 297 after 24 hr by disk diffusion method; assay type: functional; conditions: for MIC: Bacillus subtilis, MTCC 297, 24 h
Staphylococcus aureus [6] = experiment: Antibacterial activity against Staphylococcus aureus MTCC 3160 after 24 hr by disk diffusion method; assay type: functional; conditions: for MIC: Staphylococcus aureus, MTCC 3160, 24 h

| SMILES | inhibition zone (IZ) (Enterococcus faecalis) | MIC (Enterococcus faecalis) | Activity (Aspergillus niger [1]) | Activity (Escherichia coli [2]) | Activity (Staphylococcus aureus [3]) | inhibition zone (IZ) (Fusarium oxysporum) | MIC (Fusarium oxysporum) | inhibition zone (IZ) (Mucor fuscus) | MIC (Mucor fuscus) | inhibition zone (IZ) (Penicillium chrysogenum) | MIC (Penicillium chrysogenum) | inhibition zone (IZ) (Aspergillus niger [4]) | MIC (Aspergillus niger [4]) | inhibition zone (IZ) (Candida albicans) | MIC (Candida albicans) | inhibition zone (IZ) (Aspergillus fumigatus) | MIC (Aspergillus fumigatus) | inhibition zone (IZ) (Escherichia coli [5]) | MIC (Escherichia coli [5]) | inhibition zone (IZ) (Klebsiella pneumoniae) | also measured |
| --- | --- | --- | --- | --- | --- | --- | --- | --- | --- | --- | --- | --- | --- | --- | --- | --- | --- | --- | --- | --- | --- |
| CCN(CC)c1cccc(OCc2cc(=O)oc3ccc4ccccc4c23)c1 | 14 mm | 12.5 µg/mL (≈ 33.5 µM) | inactive | inactive | inactive | 14 mm | 25 µg/mL (≈ 66.9 µM) | 14 mm | 25 µg/mL (≈ 66.9 µM) | 17 mm | 12.5 µg/mL (≈ 33.5 µM) | 17 mm | 12.5 µg/mL (≈ 33.5 µM) | 13 mm | 12.5 µg/mL (≈ 33.5 µM) | 14 mm | 12.5 µg/mL (≈ 33.5 µM) | 14 mm | 12.5 µg/mL (≈ 33.5 µM) | 15 mm | MIC (Klebsiella pneumoniae): 12.5 µg/mL (≈ 33.5 µM); inhibition zone (IZ) (Pseudomonas aeruginosa): 17 mm; MIC (Pseudomonas aeruginosa): 12.5 µg/mL (≈ 33.5 µM); inhibition zone (IZ) (Bacillus subtilis): 11 mm; MIC (Bacillus subtilis): 25 µg/mL (≈ 66.9 µM); inhibition zone (IZ) (Staphylococcus aureus [6]): 13 mm; MIC (Staphylococcus aureus [6]): 12.5 µg/mL (≈ 33.5 µM) |
| O=c1cc(COc2cccc(OCc3cc(=O)oc4ccc5ccccc5c34)c2)c2c(ccc3ccccc32)o1 | 11 mm | 25 µg/mL (≈ 47.5 µM) | inactive | inactive | inactive | 13 mm | 25 µg/mL (≈ 47.5 µM) | 15 mm | 25 µg/mL (≈ 47.5 µM) | 15 mm | 25 µg/mL (≈ 47.5 µM) | 16 mm | 12.5 µg/mL (≈ 23.7 µM) | 13 mm | 12.5 µg/mL (≈ 23.7 µM) | 15 mm | 12.5 µg/mL (≈ 23.7 µM) | 11 mm | 25 µg/mL (≈ 47.5 µM) | 14 mm | MIC (Klebsiella pneumoniae): 12.5 µg/mL (≈ 23.7 µM); inhibition zone (IZ) (Pseudomonas aeruginosa): 17 mm; MIC (Pseudomonas aeruginosa): 12.5 µg/mL (≈ 23.7 µM); inhibition zone (IZ) (Bacillus subtilis): 12 mm; MIC (Bacillus subtilis): 25 µg/mL (≈ 47.5 µM); inhibition zone (IZ) (Staphylococcus aureus [6]): 12 mm; MIC (Staphylococcus aureus [6]): 25 µg/mL (≈ 47.5 µM) |
| CCN(CC)c1cccc(OCc2cc(=O)oc3c2ccc2ccccc23)c1 | 14 mm | 12.5 µg/mL (≈ 33.5 µM) | inactive | inactive | inactive | 13 mm | 25 µg/mL (≈ 66.9 µM) | 13 mm | 25 µg/mL (≈ 66.9 µM) | 17 mm | 12.5 µg/mL (≈ 33.5 µM) | 17 mm | 12.5 µg/mL (≈ 33.5 µM) | 14 mm | 12.5 µg/mL (≈ 33.5 µM) | 15 mm | 12.5 µg/mL (≈ 33.5 µM) | 13 mm | 25 µg/mL (≈ 66.9 µM) | 16 mm | MIC (Klebsiella pneumoniae): 12.5 µg/mL (≈ 33.5 µM); inhibition zone (IZ) (Pseudomonas aeruginosa): 19 mm; MIC (Pseudomonas aeruginosa): 6.25 µg/mL (≈ 16.7 µM); inhibition zone (IZ) (Bacillus subtilis): 11 mm; MIC (Bacillus subtilis): 25 µg/mL (≈ 66.9 µM); inhibition zone (IZ) (Staphylococcus aureus [6]): 14 mm; MIC (Staphylococcus aureus [6]): 12.5 µg/mL (≈ 33.5 µM) |
| O=c1cc(COc2cccc(OCc3cc(=O)oc4ccc(Br)cc34)c2)c2cc(Br)ccc2o1 | 19 mm | 6.25 µg/mL (≈ 10.7 µM) | Active | Active | Active | 13 mm | 25 µg/mL (≈ 42.8 µM) | 18 mm | 12.5 µg/mL (≈ 21.4 µM) | 18 mm | 12.5 µg/mL (≈ 21.4 µM) | 19 mm | 6.25 µg/mL (≈ 10.7 µM) | 17 mm | 6.25 µg/mL (≈ 10.7 µM) | 18 mm | 12.5 µg/mL (≈ 21.4 µM) | 14 mm | 12.5 µg/mL (≈ 21.4 µM) | 17 mm | MIC (Klebsiella pneumoniae): 6.25 µg/mL (≈ 10.7 µM); inhibition zone (IZ) (Pseudomonas aeruginosa): 21 mm; MIC (Pseudomonas aeruginosa): 6.25 µg/mL (≈ 10.7 µM); inhibition zone (IZ) (Bacillus subtilis): 16 mm; MIC (Bacillus subtilis): 6.25 µg/mL (≈ 10.7 µM); inhibition zone (IZ) (Staphylococcus aureus [6]): 17 mm; MIC (Staphylococcus aureus [6]): 6.25 µg/mL (≈ 10.7 µM) |
| CCN(CC)c1cccc(OCc2cc(=O)oc3cc(C)ccc23)c1 | 15 mm | 6.25 µg/mL (≈ 18.5 µM) | inactive | inactive | inactive | 7 mm | 50 µg/mL (≈ 148 µM) | 16 mm | 12.5 µg/mL (≈ 37 µM) | 18 mm | 12.5 µg/mL (≈ 37 µM) | 18 mm | 12.5 µg/mL (≈ 37 µM) | 8 mm | 25 µg/mL (≈ 74.1 µM) | 15 mm | 12.5 µg/mL (≈ 37 µM) | 9 mm | 50 µg/mL (≈ 148 µM) | 14 mm | MIC (Klebsiella pneumoniae): 12.5 µg/mL (≈ 37 µM); inhibition zone (IZ) (Pseudomonas aeruginosa): 16 mm; MIC (Pseudomonas aeruginosa): 12.5 µg/mL (≈ 37 µM); inhibition zone (IZ) (Bacillus subtilis): 13 mm; MIC (Bacillus subtilis): 12.5 µg/mL (≈ 37 µM); inhibition zone (IZ) (Staphylococcus aureus [6]): 16 mm; MIC (Staphylococcus aureus [6]): 12.5 µg/mL (≈ 37 µM) |
